Earlier results in US7524881B2, “Production of Δ 9 tetrahydrocannabinol” (Resolution Chemicals Limited, priority 2002, dated 2009).

Details: for psychomimetic activity: qualitative background statement

## CCCCCc1cc2c(c(O)c1C(=O)O)[C@@H]1C=C(C)CC[C@H]1C(C)(C)O2 [THCA-B, Δ9-THC carboxylic acid]
  psychomimetic activity: psychomimetically inactive

## CCCCCc1cc2c(c(O)c1C(=O)O)[C@@H]1C=C(C)CC[C@H]1C(C)(C)O2 [THCA-A, Δ9-THC carboxylic acid]
  psychomimetic activity: psychomimetically inactive

## C=C(C)[C@@H]1CCC(C)=C[C@H]1c1c(O)cc(CCCCC)cc1O [Cannabidiol (CBD), cannabidiol]
  psychomimetic activity: little activity

## CCCCCc1cc(O)c2c(c1)OC(C)(C)[C@@H]1CCC(C)=C[C@@H]21 [Δ9-THC, Delta 9 tetrahydrocannabinol]
Compared with Δ8-THC
  psychomimetic activity relative to Δ8-THC: 20 times
